Test results reported in ChEMBL document CHEMBL3991601, “The target landscape of clinical kinase drugs” (Science, 2017).
The source made the active and inactive calls. Cut-off read from the data, not from the text of the source, for most assays here: actives have a measured Kd and inactives only a lower limit.

Tests used:
[1] = molecular target: ATP-dependent RNA helicase DDX3X (Homo sapiens, UniProt O00571)
[2] = molecular target: T1, Serine/threonine-protein kinase 3 (Homo sapiens, UniProt Q13188)
T1 sequence (Q13188 whole entry): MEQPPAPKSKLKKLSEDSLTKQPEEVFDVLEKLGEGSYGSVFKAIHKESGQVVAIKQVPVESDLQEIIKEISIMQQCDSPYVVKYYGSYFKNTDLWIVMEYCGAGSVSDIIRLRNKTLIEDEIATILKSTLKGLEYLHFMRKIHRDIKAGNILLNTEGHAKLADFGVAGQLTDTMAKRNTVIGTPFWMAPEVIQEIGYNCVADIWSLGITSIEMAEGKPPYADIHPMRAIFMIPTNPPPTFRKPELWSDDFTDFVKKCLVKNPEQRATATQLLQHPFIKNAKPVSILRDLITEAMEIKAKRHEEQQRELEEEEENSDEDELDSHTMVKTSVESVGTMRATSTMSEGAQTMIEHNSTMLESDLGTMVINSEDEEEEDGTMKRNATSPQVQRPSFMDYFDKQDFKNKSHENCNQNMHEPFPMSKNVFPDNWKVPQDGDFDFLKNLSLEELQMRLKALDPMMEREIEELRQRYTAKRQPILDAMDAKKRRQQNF

LIM domain kinase 2 = LIM domain kinase 2 (Homo sapiens, UniProt P53671)
[3] = molecular target: Cyclin-dependent kinase 17 (Homo sapiens, UniProt Q00537)
[4] = molecular target: T2, General transcription and DNA repair factor IIH helicase subunit XPD (Homo sapiens, UniProt P18074); conditions: read-out: Kd apparent; k-562, colo 205, sk-n-be(2) and mv-4-11
T2 sequence (P18074 whole entry): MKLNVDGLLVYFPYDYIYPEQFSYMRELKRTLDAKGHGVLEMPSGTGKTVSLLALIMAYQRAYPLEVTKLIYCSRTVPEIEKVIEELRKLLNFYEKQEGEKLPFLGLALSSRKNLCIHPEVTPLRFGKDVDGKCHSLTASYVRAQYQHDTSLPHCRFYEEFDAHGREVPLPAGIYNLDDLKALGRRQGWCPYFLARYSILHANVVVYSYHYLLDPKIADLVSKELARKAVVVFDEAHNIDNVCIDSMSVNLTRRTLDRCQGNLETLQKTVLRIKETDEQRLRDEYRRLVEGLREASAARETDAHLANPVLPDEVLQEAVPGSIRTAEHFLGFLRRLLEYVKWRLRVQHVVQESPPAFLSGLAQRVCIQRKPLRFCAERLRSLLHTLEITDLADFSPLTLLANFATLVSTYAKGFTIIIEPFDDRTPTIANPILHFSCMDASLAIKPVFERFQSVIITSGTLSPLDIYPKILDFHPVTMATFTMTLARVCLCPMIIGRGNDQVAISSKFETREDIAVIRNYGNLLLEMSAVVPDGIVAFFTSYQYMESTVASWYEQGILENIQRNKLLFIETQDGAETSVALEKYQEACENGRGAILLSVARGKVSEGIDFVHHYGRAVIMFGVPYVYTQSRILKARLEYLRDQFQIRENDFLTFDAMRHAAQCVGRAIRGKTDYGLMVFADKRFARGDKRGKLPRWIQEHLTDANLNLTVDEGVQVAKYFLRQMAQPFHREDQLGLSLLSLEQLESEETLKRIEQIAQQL

[5] = molecular target: U5 small nuclear ribonucleoprotein 200 kDa helicase (Homo sapiens, UniProt O75643)
U5 small nuclear ribonucleoprotein 200 kDa helicase, sequence (O75643 whole entry): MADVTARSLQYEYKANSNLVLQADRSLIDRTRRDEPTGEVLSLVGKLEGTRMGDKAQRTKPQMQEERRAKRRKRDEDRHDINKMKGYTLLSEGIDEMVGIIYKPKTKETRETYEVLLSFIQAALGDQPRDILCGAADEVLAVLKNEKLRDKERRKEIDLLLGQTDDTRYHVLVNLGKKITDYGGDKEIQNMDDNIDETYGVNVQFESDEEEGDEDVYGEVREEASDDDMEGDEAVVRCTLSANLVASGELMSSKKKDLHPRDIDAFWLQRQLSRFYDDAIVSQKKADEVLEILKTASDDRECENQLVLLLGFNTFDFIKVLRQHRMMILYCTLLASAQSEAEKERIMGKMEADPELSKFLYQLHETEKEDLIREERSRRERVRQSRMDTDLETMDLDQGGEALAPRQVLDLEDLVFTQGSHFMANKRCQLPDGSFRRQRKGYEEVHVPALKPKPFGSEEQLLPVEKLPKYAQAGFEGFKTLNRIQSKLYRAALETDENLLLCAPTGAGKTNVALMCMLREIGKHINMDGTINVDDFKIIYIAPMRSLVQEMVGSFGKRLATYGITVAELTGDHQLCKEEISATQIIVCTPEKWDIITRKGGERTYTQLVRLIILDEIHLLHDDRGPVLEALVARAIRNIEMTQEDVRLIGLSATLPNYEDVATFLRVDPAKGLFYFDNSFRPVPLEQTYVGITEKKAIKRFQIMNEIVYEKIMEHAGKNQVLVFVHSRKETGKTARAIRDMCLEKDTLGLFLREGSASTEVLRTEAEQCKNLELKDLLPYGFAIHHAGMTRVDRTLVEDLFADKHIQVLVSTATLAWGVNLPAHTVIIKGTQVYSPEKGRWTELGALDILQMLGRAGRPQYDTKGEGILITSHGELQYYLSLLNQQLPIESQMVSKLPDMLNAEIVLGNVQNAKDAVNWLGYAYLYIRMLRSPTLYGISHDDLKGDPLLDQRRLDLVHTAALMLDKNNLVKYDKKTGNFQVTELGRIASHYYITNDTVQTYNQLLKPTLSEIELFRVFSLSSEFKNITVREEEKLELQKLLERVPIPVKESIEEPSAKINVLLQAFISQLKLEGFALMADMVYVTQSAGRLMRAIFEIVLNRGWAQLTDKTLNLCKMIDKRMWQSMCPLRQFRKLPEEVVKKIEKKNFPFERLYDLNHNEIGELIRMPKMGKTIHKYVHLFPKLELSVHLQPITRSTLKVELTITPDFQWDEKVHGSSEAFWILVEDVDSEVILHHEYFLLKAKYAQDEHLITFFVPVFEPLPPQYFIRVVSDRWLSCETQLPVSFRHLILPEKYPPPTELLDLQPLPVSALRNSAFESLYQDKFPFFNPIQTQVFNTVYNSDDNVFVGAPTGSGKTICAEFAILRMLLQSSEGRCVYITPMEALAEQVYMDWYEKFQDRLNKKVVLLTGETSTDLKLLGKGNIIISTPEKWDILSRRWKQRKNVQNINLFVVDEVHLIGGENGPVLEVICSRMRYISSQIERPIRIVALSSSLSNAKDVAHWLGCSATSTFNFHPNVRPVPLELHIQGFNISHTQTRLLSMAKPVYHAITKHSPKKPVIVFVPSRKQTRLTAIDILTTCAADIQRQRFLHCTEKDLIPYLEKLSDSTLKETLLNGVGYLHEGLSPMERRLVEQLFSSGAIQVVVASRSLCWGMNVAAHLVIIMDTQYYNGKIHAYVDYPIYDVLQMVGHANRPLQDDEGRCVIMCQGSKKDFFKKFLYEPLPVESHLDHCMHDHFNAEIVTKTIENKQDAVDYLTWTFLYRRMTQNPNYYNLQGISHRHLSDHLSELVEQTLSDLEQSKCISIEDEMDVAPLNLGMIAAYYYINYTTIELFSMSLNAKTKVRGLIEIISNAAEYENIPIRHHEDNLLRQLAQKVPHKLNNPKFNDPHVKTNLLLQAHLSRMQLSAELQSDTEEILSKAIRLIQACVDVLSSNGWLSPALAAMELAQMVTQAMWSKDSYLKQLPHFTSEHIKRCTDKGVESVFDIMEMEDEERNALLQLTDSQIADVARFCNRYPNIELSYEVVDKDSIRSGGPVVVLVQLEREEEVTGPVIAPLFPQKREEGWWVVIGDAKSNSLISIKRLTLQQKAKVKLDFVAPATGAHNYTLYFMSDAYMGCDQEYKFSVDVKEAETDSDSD

[6] = molecular target: MAP kinase-activated protein kinase 2 (Homo sapiens, UniProt P49137)
MAP kinase-activated protein kinase 2, sequence (P49137 whole entry): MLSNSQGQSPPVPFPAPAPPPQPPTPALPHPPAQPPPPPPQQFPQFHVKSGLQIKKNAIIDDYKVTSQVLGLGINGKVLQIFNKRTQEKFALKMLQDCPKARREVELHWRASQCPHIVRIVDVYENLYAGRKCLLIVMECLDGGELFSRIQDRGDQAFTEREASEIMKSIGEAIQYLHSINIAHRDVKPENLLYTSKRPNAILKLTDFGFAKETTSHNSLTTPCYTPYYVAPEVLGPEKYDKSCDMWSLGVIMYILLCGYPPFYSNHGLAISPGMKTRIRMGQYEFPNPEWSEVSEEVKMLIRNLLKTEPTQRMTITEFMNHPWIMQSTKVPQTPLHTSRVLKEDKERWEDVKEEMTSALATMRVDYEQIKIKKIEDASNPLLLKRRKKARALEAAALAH

[7] = molecular target: Mitogen-activated protein kinase kinase kinase kinase 1 (Homo sapiens, UniProt Q92918)
[8] = molecular target: Myosin light chain kinase, smooth muscle (Homo sapiens, UniProt Q15746)
Myosin light chain kinase, smooth muscle, sequence (Q15746 whole entry): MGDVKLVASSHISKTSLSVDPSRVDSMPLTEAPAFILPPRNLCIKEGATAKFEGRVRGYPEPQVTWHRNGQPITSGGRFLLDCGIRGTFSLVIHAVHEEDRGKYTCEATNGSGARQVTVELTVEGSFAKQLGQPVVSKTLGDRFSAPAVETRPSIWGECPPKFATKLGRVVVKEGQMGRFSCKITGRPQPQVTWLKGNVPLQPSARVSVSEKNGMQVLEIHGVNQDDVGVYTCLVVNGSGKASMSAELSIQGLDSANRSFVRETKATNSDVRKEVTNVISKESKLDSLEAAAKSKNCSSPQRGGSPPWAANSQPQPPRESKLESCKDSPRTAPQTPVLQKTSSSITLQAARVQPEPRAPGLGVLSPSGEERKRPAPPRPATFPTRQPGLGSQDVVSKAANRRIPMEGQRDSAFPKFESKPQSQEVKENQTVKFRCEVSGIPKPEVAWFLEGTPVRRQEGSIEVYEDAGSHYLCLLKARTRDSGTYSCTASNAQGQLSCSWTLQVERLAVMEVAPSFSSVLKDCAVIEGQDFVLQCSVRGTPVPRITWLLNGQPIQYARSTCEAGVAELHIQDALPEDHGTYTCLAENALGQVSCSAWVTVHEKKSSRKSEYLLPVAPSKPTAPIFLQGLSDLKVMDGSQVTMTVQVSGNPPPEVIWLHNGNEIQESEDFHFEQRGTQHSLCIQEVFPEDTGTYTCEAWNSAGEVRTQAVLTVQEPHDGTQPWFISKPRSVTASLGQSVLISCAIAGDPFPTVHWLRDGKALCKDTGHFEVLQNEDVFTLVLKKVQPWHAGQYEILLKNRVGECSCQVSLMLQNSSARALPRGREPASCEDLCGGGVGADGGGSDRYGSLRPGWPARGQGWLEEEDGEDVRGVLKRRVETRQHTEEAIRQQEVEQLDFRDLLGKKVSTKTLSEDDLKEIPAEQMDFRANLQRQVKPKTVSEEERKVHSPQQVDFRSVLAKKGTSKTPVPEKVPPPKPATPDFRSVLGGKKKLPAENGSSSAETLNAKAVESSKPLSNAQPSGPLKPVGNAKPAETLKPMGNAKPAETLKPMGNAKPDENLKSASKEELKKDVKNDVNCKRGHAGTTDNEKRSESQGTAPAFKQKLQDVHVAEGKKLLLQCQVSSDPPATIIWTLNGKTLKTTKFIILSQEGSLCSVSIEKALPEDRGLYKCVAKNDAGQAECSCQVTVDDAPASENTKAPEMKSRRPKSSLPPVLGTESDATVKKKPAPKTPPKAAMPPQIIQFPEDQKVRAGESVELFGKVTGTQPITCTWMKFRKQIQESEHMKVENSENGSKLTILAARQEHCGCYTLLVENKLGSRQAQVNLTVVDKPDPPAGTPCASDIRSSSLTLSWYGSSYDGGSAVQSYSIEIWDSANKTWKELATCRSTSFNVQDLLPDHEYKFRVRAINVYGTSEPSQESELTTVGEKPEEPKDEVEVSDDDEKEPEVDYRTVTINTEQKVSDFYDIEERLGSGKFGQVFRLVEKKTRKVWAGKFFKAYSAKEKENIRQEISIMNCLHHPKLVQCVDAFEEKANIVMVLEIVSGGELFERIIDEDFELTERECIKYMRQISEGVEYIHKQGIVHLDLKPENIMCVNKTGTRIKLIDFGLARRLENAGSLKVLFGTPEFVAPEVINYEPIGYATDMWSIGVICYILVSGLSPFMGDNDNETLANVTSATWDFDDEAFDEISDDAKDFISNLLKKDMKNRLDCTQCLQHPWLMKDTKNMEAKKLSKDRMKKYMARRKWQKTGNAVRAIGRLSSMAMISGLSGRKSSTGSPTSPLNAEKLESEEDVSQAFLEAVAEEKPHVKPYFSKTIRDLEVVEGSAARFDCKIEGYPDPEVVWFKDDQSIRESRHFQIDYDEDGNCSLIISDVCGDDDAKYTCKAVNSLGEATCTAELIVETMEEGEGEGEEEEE

[9] = molecular target: Proto-oncogene tyrosine-protein kinase receptor Ret (Homo sapiens, UniProt P07949)
[10] = molecular target: T3, Serine/threonine-protein kinase LATS1 (Homo sapiens, UniProt O95835)
T3 sequence (O95835 whole entry): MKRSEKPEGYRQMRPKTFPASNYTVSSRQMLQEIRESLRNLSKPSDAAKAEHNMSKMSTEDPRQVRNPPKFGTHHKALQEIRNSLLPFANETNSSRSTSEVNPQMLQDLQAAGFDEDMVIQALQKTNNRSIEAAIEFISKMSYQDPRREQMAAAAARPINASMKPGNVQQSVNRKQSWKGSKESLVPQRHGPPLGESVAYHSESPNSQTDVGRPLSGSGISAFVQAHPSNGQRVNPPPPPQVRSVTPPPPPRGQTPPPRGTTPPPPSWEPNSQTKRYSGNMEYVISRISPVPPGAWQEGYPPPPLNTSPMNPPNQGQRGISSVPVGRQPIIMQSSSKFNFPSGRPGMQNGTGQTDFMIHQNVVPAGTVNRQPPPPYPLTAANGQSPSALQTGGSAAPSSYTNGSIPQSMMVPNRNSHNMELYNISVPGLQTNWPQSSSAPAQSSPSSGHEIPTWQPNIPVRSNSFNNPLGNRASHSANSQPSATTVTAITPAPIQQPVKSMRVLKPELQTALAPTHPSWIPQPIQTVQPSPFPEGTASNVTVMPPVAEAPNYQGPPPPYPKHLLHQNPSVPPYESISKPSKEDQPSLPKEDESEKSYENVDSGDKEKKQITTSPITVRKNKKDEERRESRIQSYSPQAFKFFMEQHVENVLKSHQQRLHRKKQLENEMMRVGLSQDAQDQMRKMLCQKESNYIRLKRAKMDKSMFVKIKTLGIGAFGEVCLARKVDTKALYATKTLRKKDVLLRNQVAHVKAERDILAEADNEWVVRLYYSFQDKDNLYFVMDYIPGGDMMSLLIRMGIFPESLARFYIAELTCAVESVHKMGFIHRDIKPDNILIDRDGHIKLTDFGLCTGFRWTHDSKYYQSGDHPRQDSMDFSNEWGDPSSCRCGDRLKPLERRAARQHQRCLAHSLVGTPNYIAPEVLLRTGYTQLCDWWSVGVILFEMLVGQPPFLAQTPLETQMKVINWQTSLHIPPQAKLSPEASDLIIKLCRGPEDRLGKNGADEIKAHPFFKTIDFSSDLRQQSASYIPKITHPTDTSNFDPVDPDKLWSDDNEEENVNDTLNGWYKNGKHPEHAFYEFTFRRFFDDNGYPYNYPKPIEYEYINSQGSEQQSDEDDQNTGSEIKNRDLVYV
Note: in the data inactive means no Kd found up to 30 µM.

ATP-dependent RNA helicase DDX3X, sequence (O00571 whole entry): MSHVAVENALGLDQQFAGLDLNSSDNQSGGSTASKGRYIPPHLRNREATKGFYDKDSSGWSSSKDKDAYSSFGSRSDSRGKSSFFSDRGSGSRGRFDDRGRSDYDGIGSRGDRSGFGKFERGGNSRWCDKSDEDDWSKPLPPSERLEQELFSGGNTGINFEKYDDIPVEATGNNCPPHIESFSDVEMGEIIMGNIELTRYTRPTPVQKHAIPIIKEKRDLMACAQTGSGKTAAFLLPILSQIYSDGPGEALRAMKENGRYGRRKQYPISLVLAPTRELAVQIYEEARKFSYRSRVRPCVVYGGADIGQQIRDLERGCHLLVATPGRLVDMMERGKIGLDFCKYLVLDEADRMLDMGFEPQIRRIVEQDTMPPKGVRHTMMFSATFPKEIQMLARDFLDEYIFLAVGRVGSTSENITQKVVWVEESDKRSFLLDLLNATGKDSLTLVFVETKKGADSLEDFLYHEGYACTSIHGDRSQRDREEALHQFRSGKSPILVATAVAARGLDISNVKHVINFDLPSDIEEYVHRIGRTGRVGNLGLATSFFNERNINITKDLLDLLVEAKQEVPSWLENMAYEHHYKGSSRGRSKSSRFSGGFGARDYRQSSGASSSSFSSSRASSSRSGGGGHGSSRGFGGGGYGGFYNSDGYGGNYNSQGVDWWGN

Kd [1] | Kd [2] | Kd (LIM domain kinase 2) | Kd [3] | Kd [4] | Kd [5] | Kd [6] | Kd [7] | Kd [8] | Kd [9] | Kd [10] | SMILES
> 30 µM (inactive) | > 30 µM (inactive) | > 30 µM (inactive) | > 30 µM (inactive) | > 30 µM (inactive) | > 30 µM (inactive) | > 30 µM (inactive) | > 30 µM (inactive) | > 30 µM (inactive) | > 30 µM (inactive) | > 30 µM (inactive) | C[C@H]1CNCCCN1S(=O)(=O)c1cccc2cncc(F)c12
> 30 µM (inactive) | > 30 µM (inactive) | > 30 µM (inactive) | > 30 µM (inactive) | > 30 µM (inactive) | > 30 µM (inactive) | > 30 µM (inactive) | > 30 µM (inactive) | > 30 µM (inactive) | 1.6 µM (active) | > 30 µM (inactive) | Cc1nc2cc(-c3nn(C(C)C)c4ncnc(N)c34)ccc2o1
> 30 µM (inactive) | > 30 µM (inactive) | > 30 µM (inactive) | > 30 µM (inactive) | > 30 µM (inactive) | > 30 µM (inactive) | > 30 µM (inactive) | > 30 µM (inactive) | > 30 µM (inactive) | 23.2 µM (active) | 3.88 µM (active) | Nc1ncnc2c1c(-c1cccc(OCc3ccccc3)c1)cn2[C@H]1C[C@@H](CN2CCC2)C1 [AEW-541]
> 30 µM (inactive) | > 30 µM (inactive) | > 30 µM (inactive) | > 30 µM (inactive) | > 30 µM (inactive) | > 30 µM (inactive) | 2.69 µM (active) | > 30 µM (inactive) | > 30 µM (inactive) | 1.14 µM (active) | > 30 µM (inactive) | Cc1csc(-c2nnc(Nc3ccc(Oc4ncccc4-c4ccnc(N)n4)cc3)c3ccccc23)c1 [AMG-900]
> 30 µM (inactive) | > 30 µM (inactive) | > 30 µM (inactive) | > 30 µM (inactive) | > 30 µM (inactive) | > 30 µM (inactive) | > 30 µM (inactive) | > 30 µM (inactive) | > 30 µM (inactive) | > 30 µM (inactive) | > 30 µM (inactive) | Cc1cc(C(=O)NOCCO)c(Nc2ccc(I)cc2F)n(C)c1=O [AZD-8330]
> 30 µM (inactive) | > 30 µM (inactive) | > 30 µM (inactive) | > 30 µM (inactive) | > 30 µM (inactive) | > 30 µM (inactive) | > 30 µM (inactive) | > 30 µM (inactive) | > 30 µM (inactive) | > 30 µM (inactive) | > 30 µM (inactive) | Cn1cnc2c(F)c(Nc3ccc(Br)cc3F)c(C(=O)NOCCO)cc21 [BINIMETINIB]
> 30 µM (inactive) | > 30 µM (inactive) | > 30 µM (inactive) | > 30 µM (inactive) | > 30 µM (inactive) | > 30 µM (inactive) | > 30 µM (inactive) | > 30 µM (inactive) | > 30 µM (inactive) | > 30 µM (inactive) | > 30 µM (inactive) | CCn1c(C(=O)N(C2CC2)C2CC2)cc2c3c(ncn3C)c(Nc3cc(C)n(C)n3)nc21 [BMS-911543]
> 30 µM (inactive) | > 30 µM (inactive) | > 30 µM (inactive) | > 30 µM (inactive) | > 30 µM (inactive) | > 30 µM (inactive) | > 30 µM (inactive) | > 30 µM (inactive) | > 30 µM (inactive) | > 30 µM (inactive) | > 30 µM (inactive) | COCC(=O)NC/C=C/c1ccc2ncnc(Nc3ccc(Oc4ccc(C)nc4)c(C)c3)c2c1 [CP-724714]

SMILES | Kd [1] | Kd [2] | Kd (LIM domain kinase 2) | Kd [3] | Kd [4] | Kd [5] | Kd [6] | Kd [7] | Kd [8] | Kd [9] | Kd [10]
COc1cc([C@@H]2c3cc4c(cc3[C@H](O)[C@H]3COC(=O)[C@@H]23)OCO4)cc(OC)c1OC [AXL-1717] | > 30 µM (inactive) | > 30 µM (inactive) | > 30 µM (inactive) | > 30 µM (inactive) | > 30 µM (inactive) | > 30 µM (inactive) | > 30 µM (inactive) | > 30 µM (inactive) | > 30 µM (inactive) | > 30 µM (inactive) | > 30 µM (inactive)
